Measurements as given in patent publication US20250215029A1 (Recludix Pharma, Inc., priority 2022, published 2025).
Where two headings read alike, the source gives them in different places.

Legend:
[1] = molecular target: T1, pY705-STAT3 in PBMC (Homo sapiens, UniProt P40763); assay: MSD-pSTAT-PBMC Assay (pSTAT3, IL-6 stimulated); type: cell-based; conditions: PBMC, compound 3 hrs, then 10 ng/mL IL-6 for 10 min
T1 construct: Cryopreserved Peripheral Blood Mononuclear Cells (PBMC) are from AllCells; host or cells: cryopreserved PBMC
In short: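 PBMC (human, cryopreserved, overnight recovery) + cpd 3 hrs → IL-6 10 ng/mL (STAT3) or IL-4 1 ng/mL (STAT6) ×10 min → lysis with protease/phosphatase inhibitors → MSD capture/phospho detection. IC50, variable slope, DMSO-normalized.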

[2] = molecular target: T2, pY641-STAT6 in PBMC (Homo sapiens, UniProt P42226); assay: MSD-pSTAT-PBMC Assay (pSTAT6, IL-4 stimulated); type: cell-based; conditions: compound 3 hrs, then 1 ng/mL IL-4 for 10 min
T2 construct: Cryopreserved Peripheral Blood Mononuclear Cells (PBMC) are from AllCells; host or cells: cryopreserved PBMC
T2 sequence (P42226 1-847): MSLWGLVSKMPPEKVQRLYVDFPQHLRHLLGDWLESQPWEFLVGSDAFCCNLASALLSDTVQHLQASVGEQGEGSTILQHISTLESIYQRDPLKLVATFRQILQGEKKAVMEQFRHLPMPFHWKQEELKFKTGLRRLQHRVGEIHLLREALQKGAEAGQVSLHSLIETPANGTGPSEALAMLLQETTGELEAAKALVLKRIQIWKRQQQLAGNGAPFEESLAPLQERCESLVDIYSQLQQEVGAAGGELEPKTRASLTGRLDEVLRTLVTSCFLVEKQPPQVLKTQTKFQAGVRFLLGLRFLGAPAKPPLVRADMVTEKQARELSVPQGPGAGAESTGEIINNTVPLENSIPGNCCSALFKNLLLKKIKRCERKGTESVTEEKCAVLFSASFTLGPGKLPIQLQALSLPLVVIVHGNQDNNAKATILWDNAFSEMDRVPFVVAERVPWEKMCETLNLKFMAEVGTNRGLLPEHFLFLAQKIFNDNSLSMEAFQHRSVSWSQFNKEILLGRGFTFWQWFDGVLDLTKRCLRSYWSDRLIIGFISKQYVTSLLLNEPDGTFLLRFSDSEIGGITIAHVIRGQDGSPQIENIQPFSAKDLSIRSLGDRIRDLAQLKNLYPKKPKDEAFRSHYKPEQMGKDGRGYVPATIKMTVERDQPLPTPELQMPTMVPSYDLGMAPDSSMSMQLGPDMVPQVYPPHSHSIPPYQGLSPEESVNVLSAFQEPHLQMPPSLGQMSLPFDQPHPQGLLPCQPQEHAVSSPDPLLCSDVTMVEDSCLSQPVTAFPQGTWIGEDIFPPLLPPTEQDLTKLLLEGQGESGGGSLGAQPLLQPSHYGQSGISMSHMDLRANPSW
In short: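 MSD electrochemiluminescence read-out: total STAT captured, probed with anti-pY641-STAT6 or anti-pY705-STAT3. Human PBMC, 3 h compound pretreatment, 10 min stimulation (IL-4 1 ng/mL or IL-6 10 ng/mL). Unstimulated signal subtracted, DMSO-normalized, variable-slope IC50.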

[3] = PBMC, Table 1114, read-out: pSTAT6

T1 sequence (P40763 whole entry): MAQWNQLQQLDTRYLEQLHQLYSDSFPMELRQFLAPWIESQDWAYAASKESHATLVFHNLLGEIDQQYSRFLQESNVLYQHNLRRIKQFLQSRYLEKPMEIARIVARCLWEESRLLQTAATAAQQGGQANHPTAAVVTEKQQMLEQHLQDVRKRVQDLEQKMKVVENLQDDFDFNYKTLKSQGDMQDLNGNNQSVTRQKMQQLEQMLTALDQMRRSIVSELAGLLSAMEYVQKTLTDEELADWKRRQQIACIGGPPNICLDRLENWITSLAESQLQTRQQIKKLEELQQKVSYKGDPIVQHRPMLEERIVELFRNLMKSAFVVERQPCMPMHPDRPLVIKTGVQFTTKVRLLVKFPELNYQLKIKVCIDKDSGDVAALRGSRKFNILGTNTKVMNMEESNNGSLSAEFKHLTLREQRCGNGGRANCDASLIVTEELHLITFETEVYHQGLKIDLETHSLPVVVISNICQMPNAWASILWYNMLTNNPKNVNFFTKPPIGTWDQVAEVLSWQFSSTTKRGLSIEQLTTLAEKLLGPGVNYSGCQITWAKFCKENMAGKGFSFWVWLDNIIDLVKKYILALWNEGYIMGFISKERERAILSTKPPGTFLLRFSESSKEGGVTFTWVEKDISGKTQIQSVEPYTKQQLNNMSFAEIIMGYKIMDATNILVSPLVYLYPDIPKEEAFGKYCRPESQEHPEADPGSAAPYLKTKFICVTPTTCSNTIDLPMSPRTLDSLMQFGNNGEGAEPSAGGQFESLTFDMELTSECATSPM

Structure (SMILES) | IC50 ([1]; Table 115, read-out: STAT3) [nM] | IC50 ([2]; PBMC, Table 115, read-out: STAT6) [nM] | IC50 ([1]; Table 1114, read-out: pSTAT3) [nM] | IC50 [2, 3] [nM] | IC50 ([2]; pSTAT6, PBMC, Table 1114) [nM]
CC(C)CC(=O)SCCOP(=O)(OCCSC(=O)CC(C)C)C(F)(F)c1ccc2ccc(C(=O)N[C@H]3CCCC[C@H]4CC[C@@H](C(=O)N5CC(n6ccnn6)[C@H](O)C5)N4C3=O)cc2c1 (relative stereo) [Compound 1086, S,S′-((((difluoro(7-(((3S,6S,10aS)-3-((rel-trans)-3-hydroxy-4-(1H-1,2,3-triazol-1-yl)pyrrolidine-1-carbonyl)-5-oxodecahydro-pyrrolo [1,2-a]azocin-6-yl)carbamoyl)naphthalen-2-yl)methyl)phosphoryl)bis(oxy))bis(ethane-2,1-diyl)) bis(3-methylbutanethioate)] | < 100 | 100 to 1000 | – | – | –
CCCC(=O)SCCOP(=O)(Cc1ccc2sc(C(=O)N[C@H]3CCCC[C@H]4CC[C@@H](C(=O)N5CC(C#N)C(c6ccccc6)C5)N4C3=O)cc2c1)OCCSC(=O)CCC (single isomer, unassigned) [Compound 125, S,S′-(((((2-(((3S,6S,10aS)-3-((3S,4R or 3R,4S)-3-cyano-4-phenylpyrrolidine-1-carbonyl)-5-oxodecahydropyrrolo[1,2-a]azocin-6-yl)carbamoyl)benzo[b]thiophen-5-yl)methyl)phosphoryl)bis(oxy))bis(ethane-2,1-diyl))dibutanethioate] | – | – | > 3000 | 1000 to 3000 | –
CC(C)(C)C(=O)SCCOP(=O)(OCCSC(=O)C(C)(C)C)C(F)(F)c1ccc2sc(C(=O)N[C@H]3CCCC[C@H]4CC[C@@H](C(=O)N5C[C@@H](C#N)[C@H](c6ccccc6)C5)N4C3=O)cc2c1 (single isomer, unassigned) [Compound 127, S,S′-(((((2-(((3S,6S,10aS)-3-((3S,4R or 3R,4S)-3-cyano-4-phenylpyrrolidine-1-carbonyl)-5-oxodecahydro-pyrrolo[1,2-a]azocin-6-yl)carbamoyl)benzo[b]thiophen-5-yl)difluoromethyl)phosphoryl)bis(oxy))bis(ethane-2,1-diyl))bis(2,2-dimethylpropane-thioate] | – | – | 1000 to 3000 | 100 to 1000 | –
CCCC(=O)SCCOP(=O)(Oc1ccccc1)C(F)(F)c1ccc2sc(C(=O)N[C@H]3CCCC[C@H]4CC[C@@H](C(=O)N5C[C@H](c6ccccc6)[C@@H](C#N)C5)N4C3=O)cc2c1 (single isomer, unassigned) [Compound 128, S-(2-((((2-(((3S,6S,10aS)-3-((3R,4S or 3S,4R)-3-cyano-4-phenylpyrrolidine-1-carbonyl)-5-oxodecahydro-pyrrolo[1,2-a]azocin-6-yl)carbamoyl)benzo[b]thiophen-5-yl)difluoromethyl) (phenoxy)phosphoryl)oxy)ethyl) butanethioate] | – | – | > 3000 | – | 100 to 1000
CC(C)(C)C(=O)SCCOP(=O)(OCCSC(=O)C(C)(C)C)C(F)(F)c1ccc2sc(C(=O)N[C@H]3C[C@@H](O)CC[C@H]4CC[C@@H](C(=O)N5C[C@@H](C#N)[C@H](c6ccccc6)C5)N4C3=O)cc2c1 (single isomer, unassigned) [Compound 129, S,S′-(((((2-(((3S,6S,8S,10aR)-3-((3S,4R or 3R,4S)-3-cyano-4-phenylpyrrolidine-1-carbonyl)-8-hydroxy-5-oxodecahydro-pyrrolo[1,2-a]azocin-6-yl)carbamoyl)benzo [b]thiophen-5-yl)difluoromethyl)phosphoryl)bis(oxy))bis(ethane-2,1-diyl)) bis(2,2-dimethylpropane-thioate] | – | – | > 3000 | 100 to 1000 | –
CC(C)(C)C(=O)SCCOP(=O)(Oc1ccccc1)C(F)(F)c1ccc2sc(C(=O)N[C@H]3CCCC[C@H]4CC[C@@H](C(=O)N5C[C@H](c6ccccc6)[C@@H](C#N)C5)N4C3=O)cc2c1 (single isomer, unassigned) [Compound 133, S-(2-((((2-(((3S,6S,10aS)-3-((3S,4R or 3R,4S)-3-cyano-4-phenylpyrrolidine-1-carbonyl)-5-oxodecahydro-pyrrolo[1,2-a]azocin-6-yl)carbamoyl)benzo[b]thiophen-5-yl)difluoromethyl) (phenoxy)phosphoryl)oxy)ethyl)-2,2-dimethylpropane-thioate] | – | – | > 3000 | – | 100 to 1000
CC(C)(C)C(=O)SCCOP(=O)(Oc1ccc(C#N)cc1)C(F)(F)c1ccc2sc(C(=O)N[C@H]3CCCC[C@H]4CC[C@@H](C(=O)N5C[C@@H](C#N)[C@H](c6ccccc6)C5)N4C3=O)cc2c1 (single isomer, unassigned) [Compound 134, S-(2-((((2-(((3S,6S,10aS)-3-((3S,4R or 3R,4S)-3-cyano-4-phenylpyrrolidine-1-carbonyl)-5-oxodecahydro-pyrrolo[1,2-a]azocin-6-yl)carbamoyl)benzo[b]thiophen-5-yl)difluoromethyl)(4-cyanophenoxy)phosphoryl)oxy)ethyl)-2,2-dimethylpropane-thioate] | – | – | > 3000 | – | 100 to 1000
CC(C)CC(=O)SCCOP(=O)(OCCSC(=O)CC(C)C)C(F)(F)c1ccc2sc(C(=O)N[C@H]3C[C@@H](O)CC[C@H]4CC[C@@H](C(=O)N5C[C@@H](C#N)[C@H](c6ccccc6)C5)N4C3=O)cc2c1 (single isomer, unassigned) [Compound 135, S,S′-(((((2-(((3S,6S,8S,10aR)-3-((3S,4R or 3R,4S)-3-cyano-4-phenylpyrrolidine-1-carbonyl)-8-hydroxy-5-oxodecahydro-pyrrolo[1,2-a]azocin-6-yl)carbamoyl)benzo[b]thiophen-5-yl)difluoromethyl)phosphoryl)bis(oxy))bis (ethane-2,1-diyl)) bis(3-methylbutane-thioate)] | – | – | > 3000 | 100 to 1000 | –
CC(C)(C)C(=O)SCCOP(=O)(Oc1cccc(C#N)c1)C(F)(F)c1ccc2sc(C(=O)N[C@H]3CCCC[C@H]4CC[C@@H](C(=O)N5C[C@@H](C#N)[C@H](c6ccccc6)C5)N4C3=O)cc2c1 (single isomer, unassigned) [Compound 137, S-(2-((((2-(((3S,6S,10aS)-3-((3S,4R or 3R,4S)-3-cyano-4-phenylpyrrolidine-1-carbonyl)-5-oxodecahydro-pyrrolo[1,2-a]azocin-6-yl)carbamoyl)benzo[b]thiophen-5-yl)difluoromethyl)(3-cyanophenoxy)phosphoryl)oxy)ethyl)-2,2-dimethylpropane-thioate] | – | – | > 3000 | – | 100 to 1000
CCCC(=O)SCCOP(=O)(Oc1cccc(C#N)c1)C(F)(F)c1ccc2sc(C(=O)N[C@H]3CCCC[C@H]4CC[C@@H](C(=O)N5C[C@@H](C#N)[C@H](c6ccccc6)C5)N4C3=O)cc2c1 (single isomer, unassigned) [Compound 138, S-(2-((((2-(((3S,6S,10aS)-3-((3S,4R or 3R,4S)-3-cyano-4-phenylpyrrolidine-1-carbonyl)-5-oxodecahydro-pyrrolo[1,2-a]azocin-6-yl)carbamoyl)benzo[b]thiophen-5-yl)difluoromethyl) (3-cyanophenoxy)phosphoryl)oxy)ethyl)butane-thioate] | – | – | > 3000 | – | 100 to 1000
CCCC(=O)SCCOP(=O)(Oc1cccnc1)C(F)(F)c1ccc2sc(C(=O)N[C@H]3CCCC[C@H]4CC[C@@H](C(=O)N5C[C@@H](C#N)[C@H](c6ccccc6)C5)N4C3=O)cc2c1 (single isomer, unassigned) [Compound 139, S-(2-((((2-(((3S,6S,10aS)-3-((3S,4R or 3R,4S)-3-cyano-4-phenylpyrrolidine-1-carbonyl)-5-oxodecahydro-pyrrolo[1,2-a]azocin-6-yl)carbamoyl)benzo[b]thiophen-5-yl)difluoromethyl) (pyridin-3-yloxy)phosphoryl)oxy)ethyl) butanethioate] | – | – | 100 to 1000 | – | < 100
